Common to all, as to assay type: cell-based
The target in one experiment is T1, S1P1 (Homo sapiens, UniProt P21453).
T1 construct: expressed in transfected cells
The experiment in a line: FLIPR calcium assay, cells expressing S1P1 and a G-protein. Conditions: fluo-4 calcium signal compared to sphingosine 1-phosphate. From the text: (§1) Novel compounds having this general structure were synthesized and tested for sphingosine 1-phosphate receptor (S1P) activity using the FLIPR assay. Cells expressing the receptor of interest (S1P1, S1P2 or S1P3) and a G-protein (Gqi5 or G16) are loaded with fluo-4, a calcium sensitive dye. After removal of excess dye by washing, the cells are placed in the FLIPR TETRA instrument. Baseline fluorescence readings are taken prior to addition the compound to be tested. Agonists will trigger the receptor to interact with the G-protein, leading to an increase in intracellular calcium. The increase in intracellular calcium causes an increase in the fluorescence of the cells, due to the presence of fluo-4. This fluorescence increase is recorded by the FLIPR TETRA. After the calcium transient signal has decreased towards baseline, the standard agonist sphingosine 1-phosphate is added. If the test compound is an antagonist, an initial calcium signal will not be generated and the antagonist will prevent the generation of a calcium signal from sphingosine 1-phosphate. The level of fluorescence is compared to that of sphingosine 1-phosphate, and the EC50 or IC50 of the compound determined by curve fitting.

The target of another experiment is T2, S1P2 (Homo sapiens, UniProt O95136).
T2 construct: expressed in transfected cells
T2 sequence (O95136 whole entry, species assumed): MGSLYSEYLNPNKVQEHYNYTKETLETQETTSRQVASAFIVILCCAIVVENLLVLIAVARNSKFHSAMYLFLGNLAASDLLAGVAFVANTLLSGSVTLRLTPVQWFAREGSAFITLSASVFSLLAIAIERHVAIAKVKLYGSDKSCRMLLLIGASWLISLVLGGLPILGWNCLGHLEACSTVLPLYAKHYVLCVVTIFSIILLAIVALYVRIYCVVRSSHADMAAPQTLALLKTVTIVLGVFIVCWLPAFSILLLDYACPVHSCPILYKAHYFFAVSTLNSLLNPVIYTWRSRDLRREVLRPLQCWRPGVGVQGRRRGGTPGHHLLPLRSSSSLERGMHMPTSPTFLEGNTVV
The experiment in a line: FLIPR calcium assay, cells expressing S1P2 and a G-protein. Conditions: fluo-4 calcium signal compared to sphingosine 1-phosphate.
From the text: as §1

For the next experiment, the target named is T3, S1P3 (Homo sapiens, UniProt Q99500).
T3 construct: expressed in transfected cells
T3 sequence (Q99500 whole entry, species assumed): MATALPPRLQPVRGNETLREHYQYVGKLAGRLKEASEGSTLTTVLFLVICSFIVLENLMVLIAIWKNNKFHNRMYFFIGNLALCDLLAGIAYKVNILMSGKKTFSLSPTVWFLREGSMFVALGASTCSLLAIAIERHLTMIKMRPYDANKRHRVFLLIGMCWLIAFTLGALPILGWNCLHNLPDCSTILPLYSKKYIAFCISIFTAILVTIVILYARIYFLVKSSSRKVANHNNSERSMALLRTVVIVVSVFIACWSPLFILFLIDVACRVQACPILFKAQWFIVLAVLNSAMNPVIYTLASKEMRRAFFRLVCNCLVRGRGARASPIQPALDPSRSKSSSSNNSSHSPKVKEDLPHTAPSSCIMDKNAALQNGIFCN
The experiment in a line: FLIPR calcium assay, cells expressing S1P3 and a G-protein. Conditions: for EC50: fluo-4 calcium signal compared to sphingosine 1-phosphate, antagonist mode; for FLIPR (% Antagonism) S1P3: value in parentheses below the EC50, antagonism of sphingosine 1-phosphate signal.
From the text: as §1

The structures appear in SMILES notation. Structures can show the parent of a compound that is named as a salt.

T1 sequence (P21453 whole entry, species assumed): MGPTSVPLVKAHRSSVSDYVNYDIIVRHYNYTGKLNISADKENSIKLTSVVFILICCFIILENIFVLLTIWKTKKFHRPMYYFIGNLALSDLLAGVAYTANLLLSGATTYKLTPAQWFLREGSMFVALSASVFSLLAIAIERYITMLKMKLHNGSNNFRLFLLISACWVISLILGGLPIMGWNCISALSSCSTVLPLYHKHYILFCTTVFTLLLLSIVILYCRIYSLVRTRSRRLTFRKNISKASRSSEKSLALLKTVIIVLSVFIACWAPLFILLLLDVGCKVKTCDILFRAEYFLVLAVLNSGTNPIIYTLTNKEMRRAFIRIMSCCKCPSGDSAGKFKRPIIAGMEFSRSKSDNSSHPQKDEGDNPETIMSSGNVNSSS

As to `O=C(Nc1ccc(Br)cn1)C(Sc1ccc(Cl)c(Cl)c1)c1ccccc1` (stereo not shown) [Example 18, N-(5-bromopyridin-2-yl)-2-(3,4-dichlorophenylthio)-2-phenylacetamide], the results for the EC50 at S1P1, at S1P2 and at S1P3 were over 8300 nM, over 8300 nM and 133 nM, respectively. The “FLIPR (% Antagonism) S1P3” value at S1P3 was “(97) %”.
For the molecule `N#Cc1ccc(NC(=O)C(Cc2ccccc2)c2ccccc2)nc1` (stereo not shown) [Example 34, N-(5-cyanopyridin-2-yl)-2,3-diphenylpropanamide hydrochloride], the EC50 at S1P1 is over 8300 nM; at S1P2 it was over 8300 nM; on S1P3, 1500 nM. The “FLIPR (% Antagonism) S1P3” value on S1P3 is “(52) %”.
On to `Cl.O=C(Nc1ccc(Br)cn1)C(Oc1ccc(Br)cc1)c1ccc(Cl)cc1` (stereo not shown) [Example 5, 2-(4-bromophenoxy)-N-(5-bromopyridin-2-yl)-2-(4-chlorophenyl)acetamide hydrochloride], for which the EC50 was over 8300 nM on S1P1, over 8300 nM on S1P2 and 90 nM at S1P3. In addition, the “FLIPR (% Antagonism) S1P3” value on S1P3 was “(97) %”.
On to `O=C(Nc1ccc(Br)cn1)C(Sc1ccccc1)c1ccccc1` (stereo not shown) [Example 10, N-(5-bromopyridin-2-yl)-2-phenyl-2-(phenylthio)acetamide hydrochloride], for which the EC50 at S1P1 is over 8300 nM; at S1P2, over 8300 nM; at S1P3, 256 nM. In addition, the “FLIPR (% Antagonism) S1P3” value at S1P3 is recorded as “(100) %”.
As for `Cc1ccc(NC(=O)C(Cc2ccccc2)c2ccccc2)nc1` (stereo not shown) [Example 32, N-(5-methylpyridin-2-yl)-2,3-diphenylpropanamide hydrochloride], the results for the EC50 on S1P1, on S1P2 and on S1P3 were over 8300 nM, over 8300 nM and 725 nM, respectively. In addition, the “FLIPR (% Antagonism) S1P3” value at S1P3 is recorded as “(99) %”.
In the case of `Cc1ccc(OC(C(=O)Nc2ccc(Br)cn2)c2ccc(Cl)cc2)cc1.Cl` (stereo not shown) [Example 2, N-(5-bromopyridin-2-yl)-2-(4-chlorophenyl)-2-(p-tolyloxy)acetamide hydrochloride], the EC50 at S1P1 is over 8300 nM; at S1P2, over 8300 nM; at S1P3, 185 nM. Also, at S1P3, the “FLIPR (% Antagonism) S1P3” value is “(100) %”.
Consider `COc1ccc(SC(C(=O)Nc2ccc(Cl)cn2)c2ccc(Cl)cc2)cc1` (stereo not shown) [Example 12, 2-(4-chlorophenyl)-N-(5-chloropyridin-2-yl)-2-(4-methoxyphenylthio)acetamide hydrochloride], for which the EC50 is over 8300 nM at S1P1, over 8300 nM at S1P2 and 376 nM on S1P3. Moreover, the “FLIPR (% Antagonism) S1P3” value at S1P3 is on record as “(99) %”.
Take `O=C(Nc1ccc(Cl)cn1)C(Sc1ccc(Cl)cc1)c1ccc(F)cc1` (stereo not shown) [Example 26, 2-(4-chlorophenylthio)-N-(5-chloropyridin-2-yl)-2-(4-fluorophenyl)acetamide]: the concentration for a half-maximal effect (EC50) was over 8300 nM at S1P1, over 8300 nM on S1P2 and 166 nM on S1P3. The “FLIPR (% Antagonism) S1P3” value at S1P3 is “(102) %”.
For the molecule `O=C(Nc1ccc(I)cn1)C(Sc1ccccc1)c1ccccc1` (stereo not shown) [Example 28, N-(5-iodopyridin-2-yl)-2-phenyl-2-(phenylthio)acetamide], the half-maximal effective concentration (EC50) on S1P1 is over 8300 nM; on S1P2 it was over 8300 nM; at S1P3 it was 310 nM. Besides, the “FLIPR (% Antagonism) S1P3” value at S1P3 is “(101) %”.
In the case of `Cl.O=C(Nc1ccc(Cl)cn1)C(Oc1ccc(Cl)cc1)c1ccc(Cl)cc1` (stereo not shown) [Example 9, 2-(4-chlorophenoxy)-2-(4-chlorophenyl)-N-(5-chloropyridin-2-yl)acetamide hydrochloride], the EC50 is over 8300 nM at S1P1, over 8300 nM on S1P2 and 27 nM on S1P3. Further, on S1P3, the “FLIPR (% Antagonism) S1P3” value was “(97) %”.
Consider `Cl.O=C(Nc1ccc(Br)cn1)C(Oc1ccc(Cl)cc1)c1ccc(Cl)cc1` (stereo not shown) [Example 8, N-(5-bromopyridin-2-yl)-2-(4-chlorophenoxy)-2-(4-chlorophenyl)acetamide hydrochloride], for which the EC50 on S1P1 is over 8300 nM; on S1P2 it was over 8300 nM; on S1P3 it was 15 nM. Besides, the “FLIPR (% Antagonism) S1P3” value at S1P3 is “(97) %”.
As to `Cc1ccc(SC(C(=O)Nc2ccc(Cl)cn2)c2ccc(Cl)cc2)cc1` (stereo not shown) [Example 17, 2-(4-chlorophenyl)-N-(5-chloropyridin-2-yl)-2-(p-tolylthio)acetamide hydrochloride], the EC50 at S1P1 is over 8300 nM; at S1P2, over 8300 nM; at S1P3, 322 nM. Besides, on S1P3, the “FLIPR (% Antagonism) S1P3” value is given as “(99) %”.
Take `COc1ccc(OC(C(=O)Nc2ccc(Cl)cn2)c2ccc(Cl)cc2)cc1.Cl` (stereo not shown) [Example 3, 2-(4-chlorophenyl)-N-(5-chloropyridin-2-yl)-2-(4-methoxyphenoxy)acetamide hydrochloride]: the values for the EC50 at S1P1, at S1P2 and on S1P3 were over 8300 nM, over 8300 nM and 166 nM, respectively. Besides, on S1P3, the “FLIPR (% Antagonism) S1P3” value is reported as “(98) %”.
Consider `Cl.O=C(Nc1ccc(F)cn1)C(Oc1ccc(Br)cc1)c1ccc(Cl)cc1` (stereo not shown) [Example 4, 2-(4-bromophenoxy)-2-(4-chlorophenyl)-N-(5-fluoropyridin-2-yl)acetamide hydrochloride], for which the EC50 at S1P1 is over 8300 nM; on S1P2 it was over 8300 nM; at S1P3, 325 nM. Also, on S1P3, the “FLIPR (% Antagonism) S1P3” value is “(97) %”.
On to `Cl.O=C(Nc1ccc(F)cn1)C(Oc1ccc(Cl)cc1)c1ccc(Cl)cc1` (stereo not shown) [Example 7, 2-(4-chlorophenoxy)-2-(4-chlorophenyl)-N-(5-fluoropyridin-2-yl)acetamide hydrochloride], for which the EC50 on S1P1 was over 8300 nM; at S1P2, over 8300 nM; at S1P3 it was 316 nM. Moreover, the “FLIPR (% Antagonism) S1P3” value on S1P3 was “(97) %”.
`O=C(Nc1ccc(Cl)cn1)C(Sc1ccc(Cl)cc1)c1ccccc1` (stereo not shown) [Example 27, 2-(4-chlorophenylthio)-N-(5-chloropyridin-2-yl)-2-phenylacetamide]: the results for the EC50 on S1P1, on S1P2 and at S1P3 were over 8300 nM, over 8300 nM and 160 nM, respectively. The “FLIPR (% Antagonism) S1P3” value on S1P3 is recorded as “(101) %”.
Regarding `O=C(Nc1ccc(Br)cn1)C(Sc1ccc(F)cc1)c1ccc(Cl)cc1` (stereo not shown) [Example 14, N-(5-bromopyridin-2-yl)-2-(4-chlorophenyl)-2-(4-fluorophenylthio)acetamide hydrochloride], the EC50 on S1P1 is over 8300 nM; at S1P2, over 8300 nM; on S1P3, 127 nM. Also, at S1P3, the “FLIPR (% Antagonism) S1P3” value is “(99) %”.
For `O=C(Nc1ccc(Br)cn1)C(c1ccc(Cl)cc1)c1ccc(Cl)cc1` [Example 33, N-(5-bromopyridin-2-yl)-2,2-bis(4-chlorophenyl)acetamide], the EC50 on S1P1 is over 8300 nM; on S1P2 it was over 8300 nM; at S1P3, 1720 nM. For the same molecule, the “FLIPR (% Antagonism) S1P3” value at S1P3 was “(94) %”.
`COc1ccc(SC(C(=O)Nc2ccc(Br)cn2)c2ccc(Cl)cc2)cc1.Cl` (stereo not shown) [Example 11, N-(5-bromopyridin-2-yl)-2-(4-chlorophenyl)-2-(4-methoxyphenylthio)acetamide hydrochloride]: the EC50 at S1P1 was over 8300 nM; at S1P2, over 8300 nM; at S1P3, 361 nM. Further, the “FLIPR (% Antagonism) S1P3” value on S1P3 was “(100) %”.
Consider `O=C(Nc1ccc(Cl)cn1)C(Sc1ccc(Cl)c(Cl)c1)c1ccccc1` (stereo not shown) [Example 19, N-(5-chloropyridin-2-yl)-2-(3,4-dichlorophenylthio)-2-phenylacetamide], for which the EC50 is over 8300 nM on S1P1, over 8300 nM on S1P2 and 106 nM at S1P3. For the same molecule, the “FLIPR (% Antagonism) S1P3” value at S1P3 is given as “(97) %”.
`Cc1ccc(SC(C(=O)Nc2ccc(Cl)cn2)c2ccc(Cl)cc2)cc1C` (stereo not shown) [Example 15, 2-(4-chlorophenyl)-N-(5-chloropyridin-2-yl)-2-(3,4-dimethylphenylthio)acetamide hydrochloride]: the EC50 on S1P1 was over 8300 nM; at S1P2, over 8300 nM; at S1P3, 240 nM. The “FLIPR (% Antagonism) S1P3” value on S1P3 is on record as “(98) %”.
Take `O=C(Nc1ccc(Cl)cn1)C(Sc1cccc(Cl)c1)c1ccccc1` (stereo not shown) [Example 21, 2-(3-chlorophenylthio)-N-(5-chloropyridin-2-yl)-2-phenylacetamide hydrochloride]: the values for the EC50 on S1P1, on S1P2 and on S1P3 were over 8300 nM, over 8300 nM and 208 nM, respectively. Moreover, the “FLIPR (% Antagonism) S1P3” value at S1P3 is “(97) %”.
For the molecule `O=C(Nc1ccc(Cl)cn1)C(Sc1ccc(F)cc1)c1ccc(Cl)cc1` (stereo not shown) [Example 13, 2-(4-chlorophenyl)-N-(5-chloropyridin-2-yl)-2-(4-fluorophenylthio)acetamide hydrochloride], the EC50 was over 8300 nM at S1P1, over 8300 nM at S1P2 and 198 nM on S1P3. Further, the “FLIPR (% Antagonism) S1P3” value at S1P3 was “(99) %”.
With `Cc1nc(NC(=O)C(Cc2ccccc2)c2ccccc2)ccc1Br` (stereo not shown) [Example 31, N-(5-bromo-6-methylpyridin-2-yl)-2,3-diphenylpropanamide hydrochloride], the EC50 on S1P1 is over 8300 nM; on S1P2, over 8300 nM; at S1P3, 201 nM. Also, the “FLIPR (% Antagonism) S1P3” value on S1P3 is given as “(100) %”.
Regarding `O=C(Nc1ccc(Br)cn1)C(Sc1ccc(Br)cc1)c1ccccc1` (stereo not shown) [Example 25, 2-(4-bromophenylthio)-N-(5-bromopyridin-2-yl)-2-phenylacetamide], the EC50 on S1P1 was over 8300 nM; on S1P2 it was over 8300 nM; on S1P3, 286 nM. For the same molecule, on S1P3, the “FLIPR (% Antagonism) S1P3” value was “(99) %”.

Values taken from patent publication US20120088800A1, “2-(SUBSTITUTED) (ARYLMETHYL, ARYLOXY and ARYLTHIO))-N-(SUBSTITUTED PYRIDIN-2-YL)-2-(SUBSTITUTED ARYL) COMPOUNDS AS SUBTYPE-SELECTIVE MODULATORS OF SPHINGOSINE-1-PHOSPHATE-3 (S1P3) RECEPTORS” (ALLERGAN, INC., priority 2009, published 2012).
